The target of assay [1] is Recombinant human Bcl-2 protein (Homo sapiens (Human), UniProt P10415). Kind of assay: Bcl-2 TR-FRET Assay. As to conditions: Bcl-2 wild type, TR-FRET; read-out: Biochemical assay (IC50, nM) Bcl-2 WT. It counts as binding. The procedure, abridged: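 0.05 nM Bcl-2 pre-incubated 0.5 h at room temperature with 10-point compound dilutions (top final 1, 0.1, 0.02 or 0.01 uM) in 20 mM potassium phosphate pH 7.5, 50 mM NaCl, 1 mM EDTA, 0.05% Tween-20, 0.01% BSA; FITC-Bak peptide (0.5 nM) and anti-6His Tb cryptate added, 1 h. IC50 from four-parameter logistic fit.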
For orientation: TR-FRET usually uses a lanthanide donor and a delayed reading to cut background.

Assay [2] has as its target recombinant human Bcl-2-G101V protein (Homo sapiens (Human), UniProt P10415, G101V). Kind of assay: Bcl-2-G101V TR-FRET Assay. As to conditions: Bcl-2 G101V mutant, TR-FRET; read-out: Biochemical assay (IC50, nM) Bcl-2 G101V. It counts as binding. In outline:
(§1)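 TR-FRET read at excitation 337 nm with emission at 490 nm and 520 nm. Inhibition of Bcl-2-G101V binding to its ligand across increasing compound concentrations was calculated from the 490/520 nm fluorescence ratio, and IC50 values came from four-parameter logistic fits.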

Assay [3] has as its system recombinant human Bcl-2-G101V protein. Description: Bcl-2-G101V TR-FRET Assay. The assay is classed as binding. Particulars: ratio of biochemical IC50 Bcl-2 G101V / Bcl-2 WT. In outline: as §1
The subject of assay [4] is RS4;11 (BCL-2 dependent acute lymphoblastic leukemia cell line). Description: RS4;11 Cell Proliferation Assay. The assay is classed as cell-based. Particulars: Homo sapiens, RS4-11, RS4;11 cells, read-out: Cellular proliferation assay (IC50, nM) RS4. In outline: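 RS4;11 cells, 50,000 per well in RPMI-1640 with 10% FBS, treated 48 h at 37 °C with a 10-point dilution series topping at 1 μM. Viability read by CellTiter-Glo ATP luminescence; mean IC50 reported.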

Assay [5] deals with BCL-2 G101V knock-in cell line H96 (derive from RS4;11). Description: Bcl 2-G101V Knock-In RS4;11 Cell Proliferation Assay. The assay is classed as cell-based. As to conditions: Homo sapiens, RS4;11 Bcl-2 G101V knock-in clone H96, 48 hrs, CellTiter-GLO, read-out: Cellular proliferation assay (IC50, nM) RS4. The procedure, abridged:
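H96, a CRISPR-generated RS4;11 clone carrying BCL2-G101V knock-in (WES/RNA-seq validated), seeded 50,000 per well and exposed 48 h at 37 °C to 10-point dilutions topping at 1 or 10 μM. Viability by CellTiter-Glo luminescence; mean IC50.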
(In general: ATP-based viability assays read luminescence as a measure of living cells.)

As to `CC(C)c1ccccc1C1CN(Cc2cccc3c2N(C)CCO3)CCN1C1CC2(CCN(c3ccc(C(=O)NS(=O)(=O)c4ccc(NC[C@H]5CC[C@](C)(O)CC5)c([N+](=O)[O-])c4)c(Oc4cnc5[nH]ccc5c4)c3)CC2)C1` (stereo partly shown) [Example 200, 2-((1H-pyrrolo[2,3-b]pyridin-5-yl)oxy)-N-((4-((((1r,4r)-4-hydroxy-4-methylcyclohexyl)methyl)amino)-3-nitrophenyl)sulfonyl)-4-(2-(2-(2-isopropylphenyl)-4-((4-methyl-3,4-dihydro-2H-benzo[b][1,4]oxazin-5-yl)methyl)piperazin-1-yl)-7-azaspiro[3.5]nonan-7-yl) benzamide], the IC50 amounted to 0.24 nM in assay [1], 1.02 nM in assay [2], 0.27 nM in assay [4] and 1.6 nM in assay [5]. For the same compound, the “Ratio of Bcl-2 G101V/WT” value in assay [3] worked out at 4.2.

For `CC(C)c1ccccc1C1CN(Cc2cccc3c2OC(C)(C)O3)CCN1C1CC2(CCN(c3ccc(C(=O)NS(=O)(=O)c4ccc(NC[C@H]5CC[C@](C)(O)CC5)c([N+](=O)[O-])c4)c(Oc4cnc5[nH]ccc5c4)c3)CC2)C1` (stereo partly shown) [Example 201, 2-((1H-pyrrolo[2,3-b]pyridin-5-yl)oxy)-4-(2-(4-((2,2-dimethylbenzo [d][1,3]dioxol-4-yl)methyl)-2-(2-isopropylphenyl)piperazin-1-yl)-7-azaspiro[3.5]nonan-7-yl)-N-((4-((((1r,4r)-4-hydroxy-4-methylcyclohexyl)methyl)amino)-3-nitrophenyl)sulfonyl)benzamide], the IC50 is 0.28 nM in assay [1], 1.1 nM in assay [2], 0.74 nM in assay [4] and 6.2 nM in assay [5]. In addition, the “Ratio of Bcl-2 G101V/WT” value in assay [3] turned out to be 3.9.

For the compound `COc1ccc(CN2CCN(C3CC4(CCN(c5ccc(C(=O)NS(=O)(=O)c6ccc(NC[C@H]7CC[C@](C)(O)CC7)c([N+](=O)[O-])c6)c(Oc6cnc7[nH]ccc7c6)c5)CC4)C3)C(c3ccccc3C(C)C)C2)cc1C(C)=O` (stereo partly shown) [Example 212, 2-((1H-pyrrolo[2,3-b]pyridin-5-yl)oxy)-4-(2-(4-(3-acetyl-4-methoxybenzyl)-2-(2-isopropylphenyl)piperazin-1-yl)-7-azaspiro[3.5]nonan-7-yl)-N-((4-((((1r,4r)-4-hydroxy-4-methylcyclohexyl)methyl)amino)-3-nitrophenyl)sulfonyl)benzamide], the IC50 in assay [1] amounted to 0.13 nM; in assay [2] it was 0.54 nM; in assay [4], 0.3 nM; in assay [5], 2.15 nM. The “Ratio of Bcl-2 G101V/WT” value in assay [3] is 4.2.

With `CC(C)c1ccccc1C1CN(Cc2cccc3occc23)CCN1C1CC2(CCN(c3ccc(C(=O)NS(=O)(=O)c4ccc(NC[C@H]5CC[C@](C)(O)CC5)c([N+](=O)[O-])c4)c(Oc4cnc5[nH]ccc5c4)c3)CC2)C1` (stereo partly shown) [Example 213, 2-((1H-pyrrolo[2,3-b]pyridin-5-yl)oxy)-4-(2-(4-(benzofuran-4-ylmethyl)-2-(2-isopropylphenyl)piperazin-1-yl)-7-azaspiro[3.5]nonan-7-yl)-N-((4-((((1r,4r)-4-hydroxy-4-methylcyclohexyl)methyl)amino)-3-nitrophenyl)sulfonyl)benzamide], the IC50 in assay [1] is 0.7 nM; in assay [2] it was 2.6 nM; in assay [4] it was 0.32 nM; in assay [5] it was 5.2 nM. Further, in assay [3], the “Ratio of Bcl-2 G101V/WT” value worked out at 3.7.

As to `CC(C)c1ccccc1C1CN(Cc2cccc3c2N(C)C(=O)CO3)CCN1C1CC2(CCN(c3ccc(C(=O)NS(=O)(=O)c4ccc(NC[C@H]5CC[C@](C)(O)CC5)c([N+](=O)[O-])c4)c(Oc4cnc5[nH]ccc5c4)c3)CC2)C1` (stereo partly shown) [Example 216, 2-((1H-pyrrolo[2,3-b]pyridin-5-yl)oxy)-N-((4-((((1r,4r)-4-hydroxy-4-methylcyclohexyl)methyl)amino)-3-nitrophenyl)sulfonyl)-4-(2-(2-(2-isopropylphenyl)-4-((4-methyl-3-oxo-3,4-dihydro-2H-benzo[b] [1,4]oxazin-5-yl)methyl)piperazin-1-yl)-7-azaspiro[3.5]nonan-7-yl) benzamide], the IC50 in assay [1] was found to be 0.19 nM; in assay [2], 0.81 nM; in assay [4] it was 0.33 nM; in assay [5] it was 2.76 nM. For the same compound, the “Ratio of Bcl-2 G101V/WT” value in assay [3] is on record as 4.2.

For `COc1ccc(CN2CCN(C3CC4(CCN(c5ccc(C(=O)NS(=O)(=O)c6cc7c(c([N+](=O)[O-])c6)N[C@H](C[C@H]6CC[C@H](O)CC6)CO7)c(Oc6cnc7[nH]ccc7c6)c5)CC4)C3)[C@H](c3ccccc3C(C)C)C2)cc1` [Example 221], the IC50 in assay [1] was found to be 0.08 nM; in assay [2] it was 0.27 nM; in assay [4], 0.16 nM; in assay [5] it was 0.92 nM. Further, the “Ratio of Bcl-2 G101V/WT” value in assay [3] was determined as 3.4.

In the case of `COc1cc(CN2CCN(C3CC4(C3)CN(c3ccc(C(=O)NS(=O)(=O)c5ccc(NC[C@H]6CC[C@](C)(O)CC6)c([N+](=O)[O-])c5)c(Oc5cnc6[nH]ccc6c5)c3)C4)[C@H](c3ccccc3C(C)C)C2)cc(C)c1OC` [Example 234, 2-((1H-pyrrolo[2,3-b]pyridin-5-yl)oxy)-4-(6-((R)-4-(3,4-dimethoxy-5-methylbenzyl)-2-(2-isopropylphenyl)piperazin-1-yl)-2-azaspiro[3.3]heptan-2-yl)-N-((4-((((1r,4r)-4-hydroxy-4-methylcyclohexyl)methyl)amino)-3-nitrophenyl)sulfonyl)benzamide], the IC50 in assay [1] was found to be 0.087 nM; in assay [2], 0.32 nM; in assay [4], 0.09 nM; in assay [5] it was 0.35 nM. Besides, the “Ratio of Bcl-2 G101V/WT” value in assay [3] is recorded as 3.7.

As to `COc1ccc(CN2CCN(C3CC4(CCN(c5ccc(C(=O)NS(=O)(=O)c6ccc(NC[C@H]7CC[C@](C)(O)CC7)c([N+](=O)[O-])c6)c(Oc6cnc7[nH]ccc7c6)c5)CC4)C3)C(c3cc(F)ccc3C(C)C)C2)cc1` (stereo partly shown) [Example 235], the IC50 is 0.28 nM in assay [1], 1.1 nM in assay [2], 0.27 nM in assay [4] and 1.21 nM in assay [5]. Moreover, the “Ratio of Bcl-2 G101V/WT” value in assay [3] was determined as 3.8.

For `CC(C)c1ccccc1[C@@H]1CN(Cc2ccc(F)c(F)c2)CCN1C1CC2(C1)CN(c1ccc(C(=O)NS(=O)(=O)c3ccc(NC[C@H]4CC[C@](C)(O)CC4)c([N+](=O)[O-])c3)c(Oc3cnc4[nH]ccc4c3)c1)C2` [Example 244, 2-((1H-pyrrolo[2,3-b]pyridin-5-yl)oxy)-4-(6-((R)-4-(3,4-difluorobenzyl)-2-(2-isopropylphenyl)piperazin-1-yl)-2-azaspiro[3.3]heptan-2-yl)-N-((4-((((1r,4r)-4-hydroxy-4-methylcyclohexyl)methyl)amino)-3-nitrophenyl)sulfonyl)benzamide], the IC50 in assay [1] was 0.25 nM; in assay [2], 0.83 nM; in assay [4], 0.2 nM; in assay [5], 1.36 nM. For the same compound, the “Ratio of Bcl-2 G101V/WT” value in assay [3] came out at 3.3.

Regarding `COc1cc(CN2CCN(C3CC4(C3)CN(c3ccc(C(=O)NS(=O)(=O)c5ccc(NC[C@H]6CC[C@](C)(O)CC6)c([N+](=O)[O-])c5)c(Oc5cnc6[nH]ccc6c5)c3)C4)[C@H](c3ccccc3C(C)C)C2)cc(F)c1OC` [Example 245, 2-((1H-pyrrolo[2,3-b]pyridin-5-yl)oxy)-4-(6-((R)-4-(3-fluoro-4,5-dimethoxybenzyl)-2-(2-isopropylphenyl)piperazin-1-yl)-2-azaspiro[3.3]heptan-2-yl)-N-((4-((((1r,4r)-4-hydroxy-4-methylcyclohexyl)methyl)amino)-3-nitrophenyl)sulfonyl)benzamide], the IC50 in assay [1] is 0.13 nM; in assay [2] it was 0.32 nM; in assay [4] it was 0.15 nM; in assay [5], 0.53 nM. Besides, the “Ratio of Bcl-2 G101V/WT” value in assay [3] was found to be 2.5.

On to `[2H]C([2H])([2H])Oc1ccc(CN2CCN(C3CC4(CCN(c5ccc(C(=O)NS(=O)(=O)c6ccc(NC[C@H]7CC[C@](C)(O)CC7)c([N+](=O)[O-])c6)c(Oc6cnc7[nH]cc(Cl)c7c6)c5)CC4)C3)[C@H](c3ccccc3C(C)C)C2)cc1OC([2H])([2H])[2H]` [Example 250, 4-(2-((R)-4-(3,4-bis(methoxy-d3)benzyl)-2-(2-isopropylphenyl)piperazin-1-yl)-7-azaspiro[3.5]nonan-7-yl)-2-((3-chloro-1H-pyrrolo[2,3-b]pyridin-5-yl)oxy)-N-((4-((((1r,4r)-4-hydroxy-4-methylcyclohexyl)methyl)amino)-3-nitrophenyl)sulfonyl)benzamide], for which the IC50 stood at 0.09 nM in assay [1], 0.52 nM in assay [2], 0.16 nM in assay [4] and 1.06 nM in assay [5]. In addition, in assay [3], the “Ratio of Bcl-2 G101V/WT” value is listed as 5.7.

The values above are taken from patent US20240376097A1, “BCL-2 Inhibitor” (BeiGene Ltd., priority 2020, published 2024).
